Results reported in the supplement of paper PMC10307832.

Columns and labels:
Experiment in all cases: relative viability (nuclei count vs DMSO), 5 days (fraction); higher = more cells survive
[1] = compound: O=C(O)c1ccc2c(c1)nc(Nc1cccc(Cl)c1)c1ccncc12 [Silmitasertib] + CS(=O)(=O)N1CCN(Cc2cc3nc(-c4cccc5[nH]ncc45)nc(N4CCOCC4)c3s2)CC1 [Pictilisib] (partner 1 µM)
Summary of the method: (§1)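 Lung cancer cell lines were pin-tool dosed in 1536-well plates on the day after seeding, with either a lone drug or a fixed anchor-drug dose plus five library-drug doses (not always all listed) in √10 steps. Nuclei were counted on 4× images after 5 days. Relative viability is the ratio of treated-well to vehicle-well nuclei counts, with each value a median of duplicate plates.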

[2] = compound: O=C(O)c1ccc2c(c1)nc(Nc1cccc(Cl)c1)c1ccncc12 [Silmitasertib] + C[C@@H](Oc1cc(-c2cnn(C3CCNCC3)c2)cnc1N)c1c(Cl)ccc(F)c1Cl [Crizotinib] (partner 1 µM)
Summary of the method: as §1

[3] = compound: O=C(O)c1ccc2c(c1)nc(Nc1cccc(Cl)c1)c1ccncc12 [Silmitasertib] + N=C(N)NC(=N)NCCc1ccccc1 [Phenformin] (partner 250 µM)
Summary of the method: as §1

[4] = compound: O=C(O)c1ccc2c(c1)nc(Nc1cccc(Cl)c1)c1ccncc12 [Silmitasertib] + C[C@]1(O)C[C@@H](c2nc(-c3ccc4ccc(-c5ccccc5)nc4c3)c3c(N)nccn32)C1 [Linsitinib] (partner 1 µM)
Summary of the method: as §1

[5] = compound: O=C(O)c1ccc2c(c1)nc(Nc1cccc(Cl)c1)c1ccncc12 [Silmitasertib] + CCNC(=O)c1noc(-c2cc(C(C)C)c(O)cc2O)c1-c1ccc(CN2CCOCC2)cc1 [Luminespib] (partner 0.01 µM)
Summary of the method: as §1

Row | Cell Line | relative viability ([1]; first compound 0.04 µM) | relative viability ([1]; first compound 0.4 µM) | relative viability ([1]; first compound 1.265 µM) | relative viability ([1]; first compound 4 µM) | relative viability ([2]; first compound 0.04 µM) | relative viability ([2]; first compound 0.4 µM) | relative viability ([2]; first compound 1.265 µM) | relative viability ([2]; first compound 4 µM) | relative viability ([3]; first compound 0.04 µM) | relative viability ([3]; first compound 0.4 µM) | relative viability ([3]; first compound 1.265 µM) | relative viability ([3]; first compound 4 µM) | relative viability ([4]; first compound 0.04 µM) | relative viability ([4]; first compound 0.4 µM) | relative viability ([4]; first compound 1.265 µM) | relative viability ([4]; first compound 4 µM) | relative viability ([5]; first compound 0.04 µM) | relative viability ([5]; first compound 0.4 µM) | relative viability ([5]; first compound 1.265 µM) | relative viability ([5]; first compound 4 µM)
1 | HCC-78 | 0.23 | 0.231 | 0.226 | 0.205 | 0.379 | 0.31 | 0.298 | 0.323 | 0.678 | 0.517 | 0.707 | 0.594 | 0.723 | 0.469 | 0.375 | 0.481 |  |  |  | 
2 | NCI-H2170 | 0.32 | 0.259 | 0.31 | 0.269 | 1.22 | 0.958 | 0.863 | 1.15 | 0.408 | 0.34 | 0.406 | 0.421 |  |  |  |  | 0.657 | 0.593 | 0.656 | 0.707
3 | NCI-H1793 | 0.374 | 0.247 | 0.274 | 0.31 |  |  |  |  | 0.396 | 0.29 | 0.346 | 0.373 | 1.24 | 0.914 | 0.735 | 0.79 | 0.21 | 0.152 | 0.157 | 0.161
4 | HCC-366 | 0.138 | 0.137 | 0.0849 | 0.141 | 0.581 |  | 0.472 | 0.395 | 0.698 | 0.42 | 0.6 | 0.24 | 0.869 |  | 0.366 | 0.379 |  |  |  | 
5 | NCI-H1651 | 0.615 | 0.657 | 0.669 | 0.543 | 0.88 | 0.727 | 0.834 | 0.924 | 0.339 | 0.321 | 0.378 | 0.363 | 0.944 | 1 | 0.901 | 0.942 | 0.985 | 1.01 | 0.916 | 0.71
6 | LC-2-ad | 0.448 | 0.443 | 0.525 | 0.332 | 0.421 | 0.423 | 0.37 | 0.417 | 0.645 | 0.59 | 0.488 | 0.314 | 0.731 | 0.881 | 0.836 | 0.918 | 1.22 | 1.03 | 1.21 | 1.09
7 | HCC-827 | 1.04 |  | 0.751 | 0.788 | 0.993 |  | 0.952 | 1.01 | 0.436 |  | 0.413 | 0.376 | 0.967 |  | 1.18 | 1.18 | 0.616 |  | 0.524 | 0.355
8 | SK-LU-1 | 0.685 | 0.448 | 0.359 | 0.212 | 1.2 | 0.714 | 0.502 | 0.315 | 0.527 | 0.451 | 0.426 | 0.262 | 1.22 | 0.987 | 0.688 | 0.297 | 0.21 | 0.204 | 0.187 | 0.179
9 | ABC-1 | 1.12 | 0.561 | 0.303 | 0.345 | 1.27 | 1 | 0.516 | 0.445 | 0.298 | 0.214 | 0.179 | 0.201 | 0.788 | 1.13 | 0.523 | 0.294 | 0.889 | 0.696 | 0.332 | 0.312
10 | NCI-H1703 | 0.25 | 0.291 | 0.228 | 0.252 | 0.954 | 0.596 | 0.787 | 0.392 |  |  |  |  | 1.04 | 0.654 | 1.23 | 0.419 |  |  |  | 
11 | COR-L 105 | 0.463 | 0.377 | 0.46 | 0.419 | 0.881 | 0.679 | 0.702 | 0.501 | 0.476 | 0.458 | 0.408 | 0.307 | 0.977 | 0.82 | 0.92 | 0.574 | 0.709 | 0.767 | 0.541 | 0.447
12 | LOU-NH91 | 0.574 | 0.507 | 0.464 | 0.388 | 0.755 | 0.585 | 0.676 | 0.683 | 0.812 | 0.617 | 0.584 | 0.423 | 1.11 | 0.859 | 0.796 | 0.754 | 0.355 | 0.301 | 0.264 | 0.248
13 | NCI-H661 | 0.461 | 0.298 | 0.243 | 0.271 | 1.02 | 0.929 |  | 1.1 | 0.287 | 0.339 | 0.283 | 0.276 | 0.646 |  | 0.38 | 0.577 | 0.959 | 1.04 | 0.838 | 0.825
14 | LU99A | 0.325 | 0.331 | 0.297 | 0.291 | 0.583 | 0.725 | 0.558 | 0.591 | 0.883 | 0.883 | 0.848 | 0.518 | 0.574 | 0.632 | 0.396 | 0.361 | 0.272 | 0.361 | 0.259 | 0.201
15 | NCI-H1650 | 0.781 | 0.459 | 0.348 | 0.211 | 1.04 | 1 | 1 | 0.68 | 0.49 | 0.412 | 0.283 | 0.151 |  |  |  |  | 0.187 | 0.203 | 0.192 | 0.21
16 | SW 1573 | 0.561 | 0.459 | 0.462 | 0.484 | 0.952 | 0.707 | 0.734 | 0.625 | 0.465 | 0.319 | 0.336 | 0.387 | 0.805 | 0.679 | 0.855 | 0.682 | 0.243 | 0.215 | 0.179 | 0.164
17 | NCI-H2342 |  |  |  |  |  |  |  |  | 0.614 | 0.713 | 0.465 | 0.493 |  |  |  |  | 0.708 | 0.729 | 0.715 | 0.778
18 | SW 900 |  |  |  |  |  |  |  |  | 0.817 | 0.34 | 0.452 | 0.24 |  |  |  |  | 0.188 | 0.167 | 0.157 | 0.178
19 | NCI-H522 |  |  |  |  |  |  |  |  | 0.669 | 0.554 | 0.626 | 0.678 |  |  |  |  | 1.71 | 0.859 | 0.938 | 1.24
20 | IA-LM | 0.346 | 0.267 | 0.233 | 0.149 | 0.792 | 0.725 | 0.916 | 0.659 |  |  |  |  | 0.657 | 0.559 | 0.717 | 0.236 |  |  |  | 
